Read-outs that look alike come from different tables or passages of the source.

A word on the IC50: it is the point on the concentration scale where inhibition reaches its midpoint. As usually defined, the melting point is the temperature, or range, at which the solid turns liquid.

Data set [1] relates to MCF-7 breast cancer cell line. In words: Resazurin Cell Growth Inhibition Assay, MCF-7. It is filed as cell-based. The conditions noted are these: Homo sapiens, MCF7; MCF-7, 48 h, mean ± SD of three experiments; read-out: Cytotoxic Activity IC50. On the procedure:
(§1) Compounds 1–4 were assessed for their in vitro cytotoxic activity against three human cell lines i.e., breast (MCF-7), liver (HepG2), colon (HCT-116) cancer cell lines as well as in lung fibroblast (WI38) normal cell line using the Resazurin Cell Growth Inhibition Assay. Both erlotinib and 5-Fluorouracil (5-FU) were used as reference drugs. Concentrations of the tested compounds that give about 50% inhibition of cell viability (IC50, mean of triplicate) in µM were obtained. […] However, if replaced by a hydrazone substituent, a more prominent efficacy toward the three cancer cell lines was observed. […] The most promising in vitro antiproliferative activity was obtained when the hydrazone is bearing electron-withdrawal groups i.e., 4-chlorobenzylidene moiety (compound 3f), 3,4-dichloro benzylidene moiety (compound 3g) and 4-fluorobenzylidene moiety (compound 3h) compared to the standard treatment (Table 1, Figure 5). The inhibitory activity of compounds was reduced when the hydrazone group is bearing electron donating groups i.e., 4-methyl group (compound 3b), 2-methoxy group (compound 3c), 4-hydroxy (compound 3d) and 4-dimethylamino group (compound 3e). The trend of antiproliferative activity of compounds […] against all tested cell lines has the following descending order: (3g > 3h >3f >3a >3b > 3c > 3d > 3e). […]. […] This is mainly because this compound has the highest lipophilicity as well as less electron density as it has 2-Cl atoms (more electronegativity) on the indolyl pyrimidine-thiazolidinone.
(§2) In vitro cytotoxicity was measured according to the Resazurin Cell Growth Inhibition Assay Alamar Blue or Resazurin (Promega, Mannheim, Germany) reduction assay was used to assess the cytotoxicity of the studied samples. The assay tests cellular viability and mitochondrial function. Briefly, adherent cells were grown in tissue culture flasks, and then harvested by treating the flasks with 0.025% trypsin and 0.25 mM EDTA for 5 min. Once detached, cells were washed, counted, and an aliquot (5 × 10^3 cells) were placed in each well of a 96-well cell culture plate in a total volume of […]. Cells were allowed to attach overnight and then treated with samples. […]. Each assay was performed as triplicates. […] […]. The viability was compared based on a comparison with untreated cells. IC50 (on cancer cells) were the concentration of sample required to inhibit 50% of the cell proliferation and were calculated from a calibration curve by a linear regression using Microsoft Excel.

Data set [2] deals with HCT-116 colon cancer cell line. In words: Resazurin Cell Growth Inhibition Assay, HCT-116. The format is cell-based, human. On the procedure:
as §1, §2

The subject of data set [3] is HepG2 liver cancer cell line. In words: Resazurin Cell Growth Inhibition Assay, HepG2. It is filed as cell-based, human. The method, then: as §1, §2
In general terms: The colour change of resazurin is a common sign of viable cells or microbes.

The nature of data set [4]: Resazurin Cell Growth Inhibition Assay, WI38 normal cells. It is filed as cell-based. The conditions noted are these: human, WI38 normal lung fibroblast cells, WI-38 normal cells, mean ± SD of three experiments, read-out: Cytotoxic Activity IC50. The method, then:
as §1, §2

Data set [5] concerns Ehrlich ascites carcinoma (EAC). Put plainly: In vivo antitumor assay in EAC tumor bearing mice. The conditions noted are these: 0.5 mg/mouse for nine days. The method, then: The antitumor activity of these compounds was assessed by the change in tumor volume, viable cell count, mean survival time (MST) and % increase in lifespan (% ILS) of the EAC tumor bearing mice and 5-FU (standard treatment). The mean survival time (MST) and % increase in lifespan (% ILS) of EAC tumor bearing mice, as well as the influence of these compounds on viable tumor cells and the tumor volume, are shown in Table 2. The hematological profile of these mice was also assessed in comparison with the standard treatment with 5-FU, and no obvious effect on RBCs or WBCs was observed. […] MST = (day of first death + day of last death)/2 %ILS = [(MST of treated group/MST of control group) − 1] × 100 […]
In vivo antitumor evaluation was carried out as previously reported (see Supplementary Materials).
2. Biological Evaluation Details: a) In vivo antitumor assay: Materials . Adult Swiss male mice (weighing 20 -25 g) were obtained from the Department of Pharmacology, Faculty of Pharmacy, Mansoura University, Egypt.
They were kept in microlon boxes at temperature 25 ± 2 °C with a regular 12 hrs light/dark cycle. In addition, food and water were available. EAC cells (procured from NCI, Cairo, Egypt) were harvested and prepared, then their total number was counted.
Procedure. 7 Groups of mice ( n = 4) were used.
Group 1: Negative control (no EAC cells) - received normal saline.
Group 2: Positive control (EAC cells) - received normal saline.
Group 3: EAC cells - treated with compound 3g (0.5 mg/mouse).
Group 4: EAC cells - treated with compound 4f (0.5 mg/mouse).
Group 5: EAC cells - treated with compound 4g (0.5 mg/mouse).
Group 6: EAC cells - treated with compound 4h (0.5 mg/mouse).
Group 7: EAC cells - treated with 5-fluorouracil (0.5 mg/mouse).
2 x 10^6 EAC cells were injected intraperitoneally in each mouse (groups 2-7). After […]
for nine days, then blood samples were withdrawn for assessment of blood count.
Determination of tumor volume
The ascetic fluid was gathered from the peritoneal cavity and its volume was determined. It was then centrifuged, and the packed tumor cell volume was measured.
Determination of viable tumor cell count
100 μL Sample of EAC cells (from three mice per group) was utilized and diluted twenty times with saline. Cells were stained with trypan blue, viable cells are not stained, while the dead ones are stained. The number of viable cells was calculated.

The mark [6] stands for this setting: Homo sapiens, HCT-116, 48 h, mean ± SD of three experiments, read-out: Cytotoxic Activity IC50.
Setting [7] is: Homo sapiens, HepG2, 48 h, mean ± SD of three experiments, read-out: Cytotoxic Activity IC50.

`CC1=C(C(=O)N/N=C/c2ccccc2)C(c2c[nH]c3ccccc23)NC(=S)N1` (stereo not drawn) [Compound 3a]: the 50% inhibitory concentration (IC50) in data set [1] stood at 17 ± 1.8 µM; in data set [2] (setting [6]), 15.2 ± 2.32 µM; in data set [3] (setting [7]) it was 19.2 ± 1.5 µM. Moreover, the IC50 at 48 h in data set [4] stood at 38.2 ± 2.1 µM.

`CC1=C(C(=O)NN=Cc2ccc(C)cc2)C(c2c[nH]c3ccccc23)NC(=S)N1` (stereo not drawn) [Compound 3b, 4-(1H-indol-3-yl)-6-methyl-2-thioxo-1,2,3,4-tetrahydropyrimidine-5-carboxylic acid (4-methyl-benzylidene)-hydrazide] gave a melting point of 240 to 242 °C. Further, in data set [1], the IC50 was determined as 18.5 ± 2.11 µM. In data set [2] (setting [6]), the half-inhibitory concentration (IC50) was 15.6 ± 3.15 µM. Further, the IC50 in data set [3] (setting [7]) is 19.4 ± 2.19 µM. Besides, the concentration for half-maximal inhibition (IC50) at 48 h in data set [4] is 39.1 ± 1.3 µM.

Molecule `COc1ccccc1/C=N/NC(=O)C1=C(C)NC(=S)NC1c1c[nH]c2ccccc12` (stereo not drawn) [Compound 3c, 4-(1H-indol-3-yl)-6-methyl-2-thioxo-1,2,3,4-tetrahydropyrimidine-5-carboxylic acid (2-methoy-benzylidene)-hydrazide] gave a melting point of 220 to 222 °C. The 50% inhibitory concentration (IC50) in data set [1] worked out at 18.9 ± 2 µM. Further, in data set [2] (setting [6]), the IC50 came to 16.3 ± 4.16 µM. In addition, in data set [3] (setting [7]), the 50% inhibitory concentration (IC50) is 19.9 ± 2.06 µM. The concentration for half-maximal inhibition (IC50) at 48 h in data set [4] was 37.4 ± 1.49 µM.

Turning to `CC1=C(C(=O)N/N=C/c2ccccc2O)C(c2c[nH]c3ccccc23)NC(=S)N1` (stereo not drawn) [Compound 3d], the IC50 in data set [1] is 19.2 ± 2.35 µM; in data set [2] (setting [6]), 16.6 ± 1.27 µM; in data set [3] (setting [7]), 20.2 ± 2.33 µM. Further, the IC50 at 48 h in data set [4] amounted to 35.3 ± 2.42 µM.

`CC1=C(C(=O)NN=Cc2ccc(N(C)C)cc2)C(c2c[nH]c3ccccc23)NC(=S)N1` (stereo not drawn) [Compound 3e, 4-(1H-indol-3-yl)-6-methyl-2-thioxo-1,2,3,4-tetrahydropyrimidine-5-carboxylic acid (4-dimethylamino-benzylidene)-hydrazide] registered a melting point of 180 to 182 °C. Further, the half-maximal inhibitory concentration (IC50) in data set [1] came out at 19.8 ± 2.7 µM. In data set [2] (setting [6]), the IC50 worked out at 16.2 ± 1.15 µM. Further, the IC50 in data set [3] (setting [7]) was 20.4 ± 2.3 µM. Besides, the IC50 at 48 h in data set [4] stood at 40 ± 2.31 µM.

With `CC1=C(C(=O)N/N=C/c2ccc(Cl)cc2)C(c2c[nH]c3ccccc23)NC(=S)N1` (stereo not drawn) [Compound 3f], the half-inhibitory concentration (IC50) is 10.7 ± 2.3 µM in data set [1], 10.2 ± 1.18 µM in data set [2] (setting [6]) and 10.6 ± 2.32 µM in data set [3] (setting [7]). Besides, the IC50 at 48 h in data set [4] amounted to 29.8 ± 1.51 µM.

Consider `CC1=C(C(=O)N/N=C/c2ccc(F)cc2)C(c2c[nH]c3ccccc23)NC(=S)N1` (stereo not drawn) [Compound 3h], for which the IC50 in data set [1] turned out to be 10.2 ± 2.01 µM; in data set [2] (setting [6]), 10.1 ± 2.45 µM; in data set [3] (setting [7]) it was 10.4 ± 2.08 µM. Further, the IC50 at 48 h in data set [4] stood at 28.1 ± 4.22 µM.

`CC1=C(C(=O)NN2C(=O)CSC2c2ccccc2)C(c2c[nH]c3ccccc23)NC(=S)N1` (stereo not drawn) [Compound 4a, 4-(1H-indol-3-yl)-6-methyl-N-(4-oxo-2-phenylthiazolidin-3-yl)-2-thioxo-1,2,3,4-tetrahydropyrimidine-5-carboxamide] yielded a melting point of 270 to 272 °C. For the same molecule, the IC50 in data set [1] was found to be 11.2 ± 4.31 µM. Moreover, the IC50 in data set [2] (setting [6]) was 12.3 ± 2.17 µM. For the same molecule, the IC50 in data set [3] (setting [7]) amounted to 17 ± 4.3 µM. The IC50 at 48 h in data set [4] turned out to be 38 ± 5.51 µM.

The molecule `CC1=C(C(=O)NN2C(=O)CSC2c2ccc(C)cc2)C(c2c[nH]c3ccccc23)NC(=S)N1` (stereo not drawn) [Compound 4b, 4-(1H-indol-3-yl)-6-methyl-N-(4-oxo-2-(p-tolyl)thiazolidin-3-yl)-2-thioxo-1,2,3,4-tetrahydropyrimidine-5-carboxamide] had a melting point of 220 to 222 °C. For the same molecule, the half-inhibitory concentration (IC50) in data set [1] was determined as 11.6 ± 3.22 µM. Further, the IC50 in data set [2] (setting [6]) was 12.6 ± 1.05 µM. The IC50 in data set [3] (setting [7]) was determined as 18 ± 3.2 µM. The 50% inhibitory concentration (IC50) at 48 h in data set [4] came out at 39.8 ± 4.51 µM.

As for `COc1ccccc1C1SCC(=O)N1NC(=O)C1=C(C)NC(=S)NC1c1c[nH]c2ccccc12` (stereo not drawn) [Compound 4c, 4-(1H-indol-3-yl)-N-(2-(2-methoxyphenyl)-4-oxothiazolidin-3-yl)-6-methyl-2-thioxo-1,2,3,4-tetrahydropyrimidine-5-carboxamide], the melting point is 200 to 202 °C. In data set [1], the IC50 came out at 12.3 ± 4.08 µM. Also, in data set [2] (setting [6]), the half-inhibitory concentration (IC50) came to 13.2 ± 1.03 µM. In addition, in data set [3] (setting [7]), the IC50 came out at 18.5 ± 4.38 µM. The 50% inhibitory concentration (IC50) at 48 h in data set [4] was 29.5 ± 4.02 µM.

`CC1=C(C(=O)NN2C(=O)CSC2c2ccccc2O)C(c2c[nH]c3ccccc23)NC(=S)N1` (stereo not drawn) [Compound 4d, N-(2-(2-hydroxyphenyl)-4-oxothiazolidin-3-yl)-4-(1H-indol-3-yl)-6-methyl-2-thioxo-1,2,3,4-tetrahydropyrimidine-5-carboxamide]: the melting point fell in the range of 180 to 182 °C. In addition, the half-maximal inhibitory concentration (IC50) in data set [1] was determined as 12.6 ± 1.7 µM. In addition, the half-maximal inhibitory concentration (IC50) in data set [2] (setting [6]) stood at 13.6 ± 1.09 µM. Moreover, in data set [3] (setting [7]), the IC50 stood at 18.7 ± 1.2 µM. For the same molecule, the 50% inhibitory concentration (IC50) at 48 h in data set [4] came out at 29.9 ± 3.63 µM.

For the molecule `CC1=C(C(=O)NN2C(=O)CSC2c2ccc(N(C)C)cc2)C(c2c[nH]c3ccccc23)NC(=S)N1` (stereo not drawn) [Compound 4e, N-(2-(4-(dimethylamino)phenyl)-4-oxothiazolidin-3-yl)-4-(1H-indol-3-yl)-6-methyl-2-thioxo-1,2,3,4-tetrahydropyrimidine-5-carboxamide], the melting point is 170 to 172 °C. The IC50 in data set [1] came out at 14.2 ± 0.74 µM. For the same molecule, the half-inhibitory concentration (IC50) in data set [2] (setting [6]) stood at 13.7 ± 0.55 µM. Besides, in data set [3] (setting [7]), the 50% inhibitory concentration (IC50) was determined as 18.6 ± 0.94 µM. In data set [4], the IC50 at 48 h came to 20.2 ± 5.52 µM.

For `O=c1[nH]cc(F)c(=O)[nH]1` [Compound 5-FU, 5-Fluorouracil, reference compound], the IC50 stood at 5.38 ± 0.24 µM in data set [1]; 7.88 ± 0.2 µM in data set [2] (Homo sapiens; HCT-116, 48 h, mean ± SD of three experiments; read-out: Cytotoxic Activity IC50); 5.34 ± 0.4 µM in data set [3] (Homo sapiens; HepG2, 48 h, mean ± SD of three experiments; read-out: Cytotoxic Activity IC50). For the same molecule, in data set [4], the half-maximal inhibitory concentration (IC50) at 48 h turned out to be 5.7 ± 1.5 µM. Moreover, the “Tumor Volume” value in data set [5] (ascitic fluid) amounted to 0.80 mL. In addition, the “MST (mean survival time)” value in data set [5] (mean of two experiments) was 53.0 days. In data set [5] (trypan blue), the “Viable Tumor Cell Count” value is 19.07 10^6/mL.

With `C#Cc1cccc(Nc2ncnc3cc(OCCOC)c(OCCOC)cc23)c1` [erlotinib, reference compound], the concentration for half-maximal inhibition (IC50) in data set [1] amounted to 6.65 ± 0.82 µM; in data set [2] (setting [6]), 7.49 ± 0.65 µM. Besides, the IC50 at 48 h in data set [4] was determined as 22.5 ± 0.65 µM.
